Columns and labels:
[1] = molecular target: Ba/F3_KRAS^G12D cells (Homo sapiens, UniProt P01116, G12D, cells depend on it); experiment: Ba/F3 KRAS G12D cell proliferation assay (CellTiter-Glo); format: cell-based; conditions: treated for 3 days, cell-titer Glo, cell growth inhibition, read-out: BaF3_KRAS^G12D IC50
Experimental: Ba/F3_KRAS^G12D cells (KYinno, China) were generated by transducing Ba/F3 parental cells with the recombinant KRAS^G12D lentivirus and followed by 1 ug/mL of puromycin selection and IL3 depletion. […] Cells were seeded at a density of 5×10^3 per well into 96-well plate and incubated overnight. Serial diluted compounds were added to each well. Cells were treated with the compounds for 3 days, after which cell-titer Glo reagent (Promega #G7572) was used to assess cell proliferation. The luminescence signal was then collected on Tecan Spark plate reader. […] Cell growth inhibition of IC50 is calculated with the equation of Y=Bottom+(Top−Bottom)/(1+10^((Log IC50−X)*Hill Slope))

[2] = molecular target: recombinant human KRAS^G12D protein (Homo sapiens, UniProt P01116, G12D); experiment: Temperature-dependent Fluorescence (TdF) KRAS G12D protein binding assay; conditions: 6 μM KRAS^G12D protein, 10 μM compound, Sypro Orange; Kd calculated from the fluorescent shift
Chain of recombinant human KRAS^G12D protein (P01116 1-188 isoform P01116-2 G12D): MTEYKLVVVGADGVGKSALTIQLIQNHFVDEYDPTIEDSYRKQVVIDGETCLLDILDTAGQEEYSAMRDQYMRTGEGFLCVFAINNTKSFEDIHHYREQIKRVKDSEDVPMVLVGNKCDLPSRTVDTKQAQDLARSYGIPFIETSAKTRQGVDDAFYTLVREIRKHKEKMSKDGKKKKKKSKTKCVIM
Experimental: The Temperature-dependent Fluorescence (TdF) assay was used to analyze binding affinity of compound to recombinant human KRAS^G12D protein. The TdF assay was conducted in the 96-well-based real-time fluorescence plate reader (ABI 7500 or Roche LightCycler 480). Fluorescent dye Sypro Orange (Sigma) was used to monitor the protein folding-unfolding transition. Protein-compound binding was gauged by the shift in the unfolding transition temperature (ΔTm) acquired with and without compound. Each reaction sample consists of 6 μM KRAS^G12D Protein, 10 μM compound, and Sypro Orange dye (in 1% DMSO) in 20 μL reaction buffer (25 mM HEPES pH 7.5, 150 mM NaCl, 10 mM MgCl2). […] Binding affinity (Kd value) was calculated based on the degree of fluorescent shift of the protein with and without compound.

Chain of Ba/F3_KRAS^G12D cells (P01116 whole entry G12D): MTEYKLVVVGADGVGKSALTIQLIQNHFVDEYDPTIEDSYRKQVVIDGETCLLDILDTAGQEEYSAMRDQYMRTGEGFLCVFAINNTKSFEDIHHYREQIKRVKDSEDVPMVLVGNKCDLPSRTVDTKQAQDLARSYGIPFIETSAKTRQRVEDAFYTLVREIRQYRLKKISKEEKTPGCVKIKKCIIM

| SMILES | GI50 [1] | Kd [2] |
| --- | --- | --- |
| CCc1cccc2cc(O)cc(-c3c(Cl)cc4c(N5CC6CCC(C5)N6)nc(OC[C@@]56CCCN5C[C@H](F)C6)nc4c3F)c12 (racemic) [Compound 77] | < 500 nM | < 500 nM |
| Oc1cc(-c2c(Cl)cc3c(N4CC5CCC(C4)N5)nc(OC[C@]45CCCN4C[C@@H](F)C5)nc3c2F)c2c(Cl)cccc2c1 (single isomer, unassigned) [Compound 101] | < 500 nM | < 500 nM |
| Oc1cc(-c2c(Cl)cc3c(N4CC5CCC(C4)N5)nc(OC[C@]45CCCN4C[C@@H](F)C5)nc3c2F)c2c(Cl)cccc2c1 (single isomer, unassigned) [Compound 102] | 500 to 5000 nM | > 5000 nM |
| Oc1cc(-c2c(Cl)cc3c(N4CC5CCC(C4)N5)nc(OC[C@@]45CCCN4C[C@H](F)C5)nc3c2F)c2c(Cl)cccc2c1 (single isomer, unassigned) [Compound 103] | < 500 nM | < 500 nM |
| Oc1cc(-c2c(Cl)cc3c(N4CC5CCC(C4)N5)nc(OC[C@@]45CCCN4C[C@H](F)C5)nc3c2F)c2c(Cl)cccc2c1 (single isomer, unassigned) [Compound 104] | 500 to 5000 nM | > 5000 nM |
| Oc1cc(-c2c(Cl)cc3c(N4CC5CCC(C4)N5)nc(OC[C@]45CCCN4C[C@@H](F)C5)nc3c2F)c2ccccc2c1 (single isomer, unassigned) [Compound 105] | 500 to 5000 nM | > 5000 nM |
| Oc1cc(-c2c(Cl)cc3c(N4CC5CCC(C4)N5)nc(OC[C@]45CCCN4C[C@@H](F)C5)nc3c2F)c2ccccc2c1 (single isomer, unassigned) [Compound 106] | < 500 nM | < 500 nM |
| Oc1cc(-c2c(Cl)cc3c(N4CC5CCC(C4)N5)nc(OC[C@@]45CCCN4C[C@H](F)C5)nc3c2F)c2ccccc2c1 (single isomer, unassigned) [Compound 107] | < 500 nM | < 500 nM |
| Oc1cc(-c2c(Cl)cc3c(N4CC5CCC(C4)N5)nc(OC[C@@]45CCCN4C[C@H](F)C5)nc3c2F)c2ccccc2c1 (single isomer, unassigned) [Compound 108] | 500 to 5000 nM | > 5000 nM |
| Cc1cccc2cc(O)cc(-c3c(Cl)cc4c(N5CC6CCC(C5)N6)nc(OC[C@@]56CCCN5C[C@H](F)C6)nc4c3F)c12 (single isomer, unassigned) [Compound 117] | < 500 nM | < 500 nM |
| Cc1cccc2cc(O)cc(-c3c(Cl)cc4c(N5CC6CCC(C5)N6)nc(OC[C@@]56CCCN5C[C@H](F)C6)nc4c3F)c12 (single isomer, unassigned) [Compound 118] | < 500 nM | < 500 nM |
| N#Cc1cc2c(N3CC4CCC(C3)N4)nc(OC[C@@]34CCCN3C[C@H](F)C4)nc2c(F)c1-c1cc(O)cc2cccc(Cl)c12 (single isomer, unassigned) [Compound 119] | 500 to 5000 nM | > 5000 nM |
| N#Cc1cc2c(N3CC4CCC(C3)N4)nc(OC[C@@]34CCCN3C[C@H](F)C4)nc2c(F)c1-c1cc(O)cc2cccc(Cl)c12 (single isomer, unassigned) [Compound 120] | < 500 nM | < 500 nM |
| CCc1cccc2cc(O)cc(-c3c(Cl)cc4c(N5CC6CCC(C5)N6)nc(OC[C@@]56CCCN5C[C@H](F)C6)nc4c3F)c12 (single isomer, unassigned) [Compound 133] | < 500 nM | < 500 nM |
| CCc1cccc2cc(O)cc(-c3c(Cl)cc4c(N5CC6CCC(C5)N6)nc(OC[C@@]56CCCN5C[C@H](F)C6)nc4c3F)c12 (single isomer, unassigned) [Compound 134] | 500 to 5000 nM | > 5000 nM |
| CCc1c(F)ccc2cc(O)cc(-c3c(Cl)cc4c(N5CC6CCC(C5)N6)nc(OC[C@@]56CCCN5C[C@H](F)C6)nc4c3F)c12 (single isomer, unassigned) [Compound 147] | < 500 nM |  |
| CCc1c(F)ccc2cc(O)cc(-c3c(Cl)cc4c(N5CC6CCC(C5)N6)nc(OC[C@@]56CCCN5C[C@H](F)C6)nc4c3F)c12 (single isomer, unassigned) [Compound 148] | < 500 nM |  |
| C#Cc1c(F)ccc2cc(O)cc(-c3c(Cl)cc4c(N5CC6CCC(C5)N6)nc(OC[C@@]56CCCN5C[C@H](F)C6)nc4c3F)c12 (single isomer, unassigned) [Compound 155] | < 500 nM |  |
| C#Cc1c(F)ccc2cc(O)cc(-c3c(F)cc4c(N5CC6CCC(C5)N6)nc(OC[C@@]56CCCN5C[C@H](F)C6)nc4c3F)c12 (single isomer, unassigned) [Compound 165] | < 500 nM |  |
| CN(C)CCCOc1nc(N2CC3CCC(C2)N3)c2cc(Cl)c(-c3c(N)cccc3F)c(F)c2n1 [Compound 9] | > 5000 nM |  |
| CN1CCC[C@H]1COc1nc(NC2CNC2)c2cc(Cl)c(-c3cc(O)cc4cccc(Cl)c34)c(F)c2n1 [Compound 15] |  | > 5000 nM |
| CN1CC(F)(F)CC1COc1nc(N2CC3CCC(C2)N3)c2cc(Cl)c(-c3cc(O)cc4ccccc34)c(F)c2n1 (stereo not shown) [Compound 34] | 500 to 5000 nM |  |
| CN1CCO[C@@H](COc2nc(N3CC4CCC(C3)N4)c3cc(Cl)c(-c4cc(O)cc5ccccc45)c(F)c3n2)C1 [Compound 37] | 500 to 5000 nM |  |

| SMILES | GI50 [1] | Kd [2] |
| --- | --- | --- |
| CN1CCC(Oc2nc(N3CC4CCC(C3)N4)c3cc(Cl)c(-c4cc(O)cc5ccccc45)c(F)c3n2)CC1 [Compound 38] | 500 to 5000 nM |  |
| Oc1cccc(F)c1-c1c(Cl)cc2c(N3CC4CCC(C3)N4)nc(OCC34CCCN3CCC4)nc2c1F [Compound 63] |  | 500 to 5000 nM |
| Oc1cc(-c2c(Cl)cc3c(N4CC5CCC(C4)N5)nc(OC[C@@]45CCCN4C[C@H](F)C5)nc3c2F)c2ccccc2c1 [Compound 68] |  | < 500 nM |
| Oc1cc(-c2c(Cl)cc3c(N4CC5CCC(C4)N5)nc(OCC45CCCN4CCC5)nc3c2F)c2c(Cl)c(F)ccc2c1 [Compound 71] |  | < 500 nM |
| N#Cc1cc2c(N3CC4CCC(C3)N4)nc(OCC34CCCN3CCC4)nc2c(F)c1-c1cc(O)cc2ccccc12 [Compound 73] |  | < 500 nM |
| CC(C)N1CCC(Oc2nc(N3CC4CCC(C3)N4)c3cc(Cl)c(-c4cc(O)cc5ccccc45)c(F)c3n2)C1 (stereo not shown) [Compound 84] |  | > 5000 nM |
| N#Cc1cc2c(N3CC4CCC(C3)N4)nc(OC[C@@]34CCCN3C[C@H](F)C4)nc2c(F)c1-c1c(O)cccc1F [Compound 90] | > 5000 nM |  |
| N#Cc1cc2c(N3CC4CCC(C3)N4)nc(OC[C@@]34CCCN3C[C@H](F)C4)nc2c(F)c1-c1ccc(F)c2sc(N)nc12 [Compound 112] |  | < 500 nM |
| Cc1cc(N)nc(-c2c(SC(F)(F)F)cc3c(N4CCNC[C@@H]4C)nc(OC[C@@H]4CCCN4C)nc3c2F)c1C(F)(F)F [Compound 136] |  | > 5000 nM |
| COc1nc(N2CC3CCC(C2)N3)c2cc(Cl)c(-c3ccc(F)c4sc(N)nc34)c(F)c2n1 [Compound 141] |  | 500 to 5000 nM |
| CCc1c(F)ccc2cc(O)cc(-c3c(C#N)cc4c(N5CC6CCC(C5)N6)nc(OC[C@@]56CCCN5C[C@H](F)C6)nc4c3F)c12 [Compound 149] | < 500 nM |  |
| CCc1c(F)ccc2cc(O)cc(-c3c(C#N)cc4c(N5CC6CCC(C5)N6)nc(OC[C@@]56CCCN5C[C@H](F)C6)nc4c3F)c12 [Compound 150] | < 500 nM |  |
| CCOc1cc2c(N3CC4CCC(C3)N4)nc(OC[C@@]34CCCN3C[C@H](F)C4)nc2c(F)c1-c1cc(O)cc2cccc(CC)c12 [Compound 156] | < 500 nM |  |
| CCOc1cc2c(N3CC4CCC(C3)N4)nc(OC[C@@]34CCCN3C[C@H](F)C4)nc2c(F)c1-c1cc(O)cc2cccc(CC)c12 [Compound 157] | 500 to 5000 nM |  |
| CCOc1cc2c(N3CC4CCC(C3)N4)nc(OC[C@@]34CCCN3C[C@H](F)C4)nc2c(F)c1-c1cc(O)cc2ccc(F)c(CC)c12 [Compound 158] | < 500 nM |  |
| CCOc1cc2c(N3CC4CCC(C3)N4)nc(OC[C@@]34CCCN3C[C@H](F)C4)nc2c(F)c1-c1cc(O)cc2ccc(F)c(CC)c12 [Compound 159] | 500 to 5000 nM |  |
| C#Cc1c(F)ccc2cc(O)cc(-c3c(OCC)cc4c(N5CC6CCC(C5)N6)nc(OC[C@@]56CCCN5C[C@H](F)C6)nc4c3F)c12 [Compound 160] | < 500 nM |  |
| C#Cc1c(F)ccc2cc(O)cc(-c3c(OCC)cc4c(N5CC6CCC(C5)N6)nc(OC[C@@]56CCCN5C[C@H](F)C6)nc4c3F)c12 [Compound 161] | < 500 nM |  |
| C#Cc1c(F)ccc2cc(O)cc(-c3c(OC)cc4c(N5CC6CCC(C5)N6)nc(OC[C@@]56CCCN5C[C@H](F)C6)nc4c3F)c12 [Compound 162] | < 500 nM |  |
| CCc1c(F)ccc2cc(O)cc(-c3c(OC)cc4c(N5CC6CCC(C5)N6)nc(OC[C@@]56CCCN5C[C@H](F)C6)nc4c3F)c12 [Compound 164] | < 500 nM |  |
| C#Cc1c(F)ccc2cc(O)cc(-c3cc(OC)c4c(N5CC6CCC(C5)N6)nc(OC[C@@]56CCCN5C[C@H](F)C6)nc4c3F)c12 [Compound 167] | < 500 nM |  |
| C#Cc1c(F)ccc2cc(O)cc(-c3cc(OC(C)C)c4c(N5CC6CCC(C5)N6)nc(OC[C@@]56CCCN5C[C@H](F)C6)nc4c3F)c12 [Compound 169] | < 500 nM |  |
| C#Cc1c(F)ccc2cc(O)cc(-c3ccc4c(N5CC6CCC(C5)N6)nc(OC[C@@]56CCCN5C[C@H](F)C6)nc4c3F)c12 [Compound 170] | < 500 nM |  |

— patent US20230242544A1, “QUINAZOLINE COMPOUNDS, PREPARATION METHODS AND USES THEREOF” (INVENTISBIO CO., LTD., priority 2020, published 2023)
